Assay results reported in patent publication US10927139B2, “Chemically cleavable group” (Tagworks Pharmaceuticals B.V., priority 2012, dated 2021).

Legend:
[1] = Testing the stability of a TCO compound under chemical conditions (HPLC-MS/PDA, GC-MS); assay type: physicochemical; conditions: for 1 h
Description: (§1) The feasibility to use the TCO group as a protective group in chemistry was studied by testing the stability of a range of TCO derivatives as model compounds under various conditions, and following the deprotection upon reaction with a tetrazine derivative under these conditions.
Typical Example for Testing the Stability of a TCO Compound
The TCO stock solution (10 μL 25 mM; 2.5*10^−7 mol) was added to a solution of the specific condition (100 μL). The mixture was stirred at the specific condition for a certain amount of time, and then the fate of the TCO compound was monitored by HPLC-MS/PDA analysis and/or GC-MS analysis, and an estimation of its stability was made.
(§2) A) in acetonitrile with 5 equivalents of pyridine per TCO at 20° C.
(§3) B) in acetonitrile with 5 equivalents of DIPEA per TCO at 20° C.
(§4) C) in acetonitrile with 5 equivalents of piperidine per TCO at 20° C.
(§5) D) in acetonitrile with 5 equivalents of n-butylamine per TCO at 20° C.
(§6) E) in acetonitrile with 5 equivalents of 2-mercaptoethanol per TCO at 20° C.
(§7) F) in tetrahydrofuran with 5 equivalents of triphenylphosphine per TCO at 20° C.
(§8) G) in acetonitrile with 5 equivalents of DCC per TCO at 20° C.
(§9) H) in acetonitrile with 5 equivalents of PyBOP per TCO at 20° C.
(§10) I) in acetonitrile with 1 v % of formic acid at 20° C.
(§11) J) in chloroform at 20° C.
(§12) K) in chloroform with 1 v % of formic acid at 20° C.
(§13) L) in chloroform with 1 v % of trifluoroacetic acid at 20° C.
(§14) M) in chloroform with 10 v % of trifluoroacetic acid at 20° C.
(§15) N) in chloroform with 33 v % of trifluoroacetic acid at 20° C.
(§16) Z) in 25% acetonitrile in water at 20° C.

[2] = Testing the feasibility of the deprotection of TCO compounds upon reaction with tetrazine; conditions: for 1 h
Description: as §1
Typical Example for Testing the Feasibility of the Deprotection
The TCO stock solution (10 μL 25 mM in acetonitrile; 2.5*10^−7 mol) was added to a solution of the specific condition (100 μL). A solution of 3,6-dimethyl-1,2,4,5-tetrazine (8, 20 μL 25 mM in acetonitrile; 5.0*10^−7 mol) was added, and the mixture was stirred at the specific condition for a certain amount of time. The reaction was monitored by HPLC-MS/PDA analysis and/or GC-MS analysis, and the percentage of deprotection was estimated.
as §2, §3, §4, §5, §6, §7, §8, §9, §10, §11, §12, §13, §14, §15, §16

[3] = A) in acetonitrile with 5 equivalents of pyridine per TCO at 20° C.
[4] = B) in acetonitrile with 5 equivalents of DIPEA per TCO at 20° C.
[5] = G) in acetonitrile with 5 equivalents of DCC per TCO at 20° C.
[6] = I) in acetonitrile with 1 v % of formic acid at 20° C.
[7] = Z) in 25% acetonitrile in water at 20° C.
[8] = tetrazine 8; A) in acetonitrile with 5 equivalents of pyridine per TCO at 20° C.
[9] = tetrazine 8; B) in acetonitrile with 5 equivalents of DIPEA per TCO at 20° C.
[10] = tetrazine 8; G) in acetonitrile with 5 equivalents of DCC per TCO at 20° C.
[11] = tetrazine 8; I) in acetonitrile with 1 v % of formic acid at 20° C.
[12] = tetrazine 8; Z) in 25% acetonitrile in water at 20° C.

Structure (SMILES)	Stability of TCO [1, 3]	Stability of TCO: hydrolysis [1, 4]	Stability of TCO [1, 5]	Stability of TCO [1, 6]	Stability of TCO [1, 7]	Stability of TCO [1, 4]	Stability of TCO ([1]; J) in chloroform at 20° C.)	Deprotection (%) [2, 8]	Deprotection (%) [2, 9]	Deprotection (%) [2, 10]	Deprotection (%) [2, 11]	Deprotection (%) [2, 12]	Deprotection (%) ([2]; tetrazine 8; J) in chloroform at 20° C.)
O=C(OC1/C=C/CCCCC1)c1ccc([N+](=O)[O-])cc1 (centres unmarked) [drawing 116]	stable	~2%	stable	stable	stable			68%	83%	89%	95%	80%	
C1=C/C(OCc2ccccc2)CCCCC/1 (centres unmarked)					stable stable		stable stable					54%	70%
O=C(Oc1ccc([N+](=O)[O-])cc1)OC1/C=C/CCCCC1 (centres unmarked)	stable	19%	stable	stable	stable			64%	90%	72%	97%	70%	

Now from value to molecule, other results behind:

Stability of TCO [1, 3]	Stability of TCO: hydrolysis [1, 4]	Stability of TCO [1, 5]	Stability of TCO [1, 6]	Stability of TCO [1, 7]	Stability of TCO [1, 4]	Stability of TCO ([1]; J) in chloroform at 20° C.)	Structure (SMILES)	Deprotection (%) [2, 8]	Deprotection (%) [2, 9]	Deprotection (%) [2, 10]	Deprotection (%) [2, 11]	Deprotection (%) [2, 12]	Deprotection (%) ([2]; tetrazine 8; J) in chloroform at 20° C.)
stable stable stable stable		stable stable stable stable	stable stable stable stable		stable stable stable stable		Cc1cc(C)cc(NC(=O)OC2/C=C/CCCCC2)c1 (centres unmarked) [drawing 128]	55%	39%	91%	97%		
stable stable stable stable stable		stable stable stable stable stable	stable stable stable stable stable	stable stable stable stable stable	stable stable stable stable stable		C1=C/C(Oc2ccccc2)CCCCC/1 (centres unmarked) [drawing 120]	42%	92%	80%	92%	87%	
				stable			C1=C/C(Oc2ccccc2)CCCCC/1 (centres unmarked) [drawing 122]					72%	
